From US20210038742A1, “CONJUGATION OF TLR7 AGONIST TO NANO-MATERIALS ENHANCES THE AGONISTIC ACTIVITY” (priority 2019, published 2021)

Experiments:
TLR7 [1] = biological target: T1, TLR7 (Mus musculus, UniProt P58681); test: IL-6 release in mouse BMDCs (ELISA); assay type: cell-based
T1 construct: endogenous in cells; host or cells: mouse bone marrow-derived dendritic cells (BMDCs)
T1 sequence (P58681 27-1050): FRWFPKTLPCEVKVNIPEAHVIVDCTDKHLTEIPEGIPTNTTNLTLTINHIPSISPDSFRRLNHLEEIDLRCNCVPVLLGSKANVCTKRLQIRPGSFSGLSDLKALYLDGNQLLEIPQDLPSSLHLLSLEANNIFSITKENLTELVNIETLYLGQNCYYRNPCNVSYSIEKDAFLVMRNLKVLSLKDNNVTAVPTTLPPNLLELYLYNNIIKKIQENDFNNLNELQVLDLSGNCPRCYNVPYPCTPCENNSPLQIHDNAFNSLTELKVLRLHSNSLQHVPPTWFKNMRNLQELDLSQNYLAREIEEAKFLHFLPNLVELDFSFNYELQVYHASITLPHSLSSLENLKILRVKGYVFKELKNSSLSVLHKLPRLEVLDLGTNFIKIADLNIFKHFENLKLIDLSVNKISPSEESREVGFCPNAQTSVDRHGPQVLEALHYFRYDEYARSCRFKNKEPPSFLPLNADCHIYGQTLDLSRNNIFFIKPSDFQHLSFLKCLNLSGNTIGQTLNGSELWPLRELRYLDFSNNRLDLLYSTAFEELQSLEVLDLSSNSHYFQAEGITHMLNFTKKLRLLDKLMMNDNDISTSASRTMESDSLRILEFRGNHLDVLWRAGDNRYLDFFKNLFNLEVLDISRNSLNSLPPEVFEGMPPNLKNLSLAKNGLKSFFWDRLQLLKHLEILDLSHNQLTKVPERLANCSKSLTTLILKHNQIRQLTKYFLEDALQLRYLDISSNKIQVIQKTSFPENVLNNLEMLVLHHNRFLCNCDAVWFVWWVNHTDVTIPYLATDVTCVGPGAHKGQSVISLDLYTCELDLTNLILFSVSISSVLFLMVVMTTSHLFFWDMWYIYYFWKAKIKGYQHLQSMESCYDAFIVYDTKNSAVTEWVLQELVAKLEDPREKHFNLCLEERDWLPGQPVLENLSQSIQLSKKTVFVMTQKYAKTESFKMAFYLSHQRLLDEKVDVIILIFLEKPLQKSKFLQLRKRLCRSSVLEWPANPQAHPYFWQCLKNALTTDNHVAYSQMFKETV
Method: (§1) FIGS. 4A-4E. […] Mouse BMDCs or human PBMCs were plated and incubated with serially diluted 1V209 nanoshells conjugates at different coating densities (high, medium, or low density conjugates, unconjugated TLR7 ligand 1V209, or silica nanoshells for 18 hours. Control cells were treated with 1 μM resiquimod or 0.5% DMSO as vehicle. IL-6 (A) and IL-12 (B) released in the culture supernatants of mouse BMDCs were measured using ELISA. (C) Cytotoxicity in BMDCs was measured by MTT assay. (D) IL-6 released in the culture supernatants of human PBMCs. (E) IL-6 released in the culture supernatants BMDCs isolated from TLR7 deficient mice.
(§2) The correlation between TLR7 ligands density and cytokines induction level was further investigated. To test this, mouse bone marrow-derived dendritic cells (BMDCs) or human peripheral blood mononuclear cells (PBMCs) were treated with unconjugated 1V209, SiO2 nanoshells, or 1V209-nanoshell conjugates with different coating densities (high, medium, or low coating densities). The levels of IL-6 and IL-12 release in the culture supernatant were measured. […] Different formula of conjugates were also tested their cytotoxicity in BMDCs. […] To determine whether the immune potency of 1V209-nanoshell conjugates was TLR7 specific, conjugates was performed in TLR7 deficient BMDCs. […] Thus, high coating of TLR7 agonists silica shells are denoted as 1v209-NS conjugates in the following description.

CT26 tumors = test: CT26 tumor model, intratumoral monotherapy (tumor growth, CD3 IHC, IFN-γ RT-qPCR); assay type: in vivo, mouse; details: single agent
Text: FIGS. 13A-13F. Tumor growth regression in mice treated with NS-TLR7a. BALB/c mice were implanted with CT26 cells and treatment began when tumors reached 100 mm^3. Mice (n=5/group) were randomized and treated with vehicle (PBS), silica NS, unconjugated agonist (TLR7a), or NS-TLR7a every other day. Tumor tissues were collected on day 10 post treatment for analysis. A) Protocol of treatment. B) Average tumor growth curves per treatment. (C and D) Immunohistochemistry (IHC) images of CD3^+ cells infiltrating into the tumor environments for (C) unconjugated TLR7a or (D) TLR7a-NS conjugates locally injected tumor. (E and F) IFN-γ gene expression level (E) and (F) quantified CD3^+ T cells (F) in tumor samples for vehicle, NS, TLR7a, and TLR7a-NS conjugate treated groups (n=4-5/group). Representative IHC images were shown. […]
Animals and Tumor Model: Mouse colon cancer cell line CT26 (Cat. No. CRL-2638) was purchased from American Type Culture Collection (ATCC). […] Tumor volume was determined by caliper with the formula: volume (mm^3)=(width×width×length)/2. […]
To test the anti-tumor effects of TLR7 with or without conjugation onto silica nanoshells in vivo, silica NS, unconjugated TLR7a (TLR7 agonist), and NS-TLR7a were tested in a CT26 mouse tumor model. […] On day 8, tumors were harvested for immunohistochemistry (IHC) analysis and CD3^+ cells were assessed as T cell population in the tumor microenvironment.

TLR7 [2] = biological target: T1, TLR7; test: IL-12 release in mouse BMDCs (ELISA); assay type: cell-based
Method: as §1
FIG. 23. In vitro cytokine induction of NS-TLR in murine cells. Mouse BMDCs (10^5 cells) were plated and incubated with serially diluted 100 nm NS-TLR at different coating densities for 18 hours. IL-12 released in the culture supernatants of mouse BMDCs incubated with unconjugated 1V209, high, medium, low coating density NS-TLR, and silica shells. IL-12 cytokine was measured via ELISA. All data are representative dose response curves in mean±SD with triplicate technical repeats. Data are representative of three independent experiments showing similar results. Data were analyzed by two-way ANOVA with Tukey's post hoc analysis.
as §2

NLRP3 inflammasome = test: IL-1β release in BMDCs (ELISA); assay type: cell-based, mouse; details: supernatant
Method: FIGS. 5A-5C. TLR7 agonist-silica nanoshells conjugates generate high level of IL-1p in BMDCs. 75-2500 nM of TLR7 agonist-silcia shells conjugates were incubated with BMDCs for 24 hours at 37° C., 5% CO2. IL-1β level in supernatant was determined by ELISA. Mechanism figure reference: He, Y. et. al. (2016).
FIG. 24. In vitro IL-1β release of NS-TLR and mixture in BMDCs. 75-2500 nM of NS-TLR (high coating density) and mixture of silica nanoshells and 1V209 were incubated with wild type BMDCs for 18 hours. IL-1p cytokine was measured via ELISA. Dose response curves are in means SD. Data were analyzed by t test.
IL-1β secretion by dendritic cells is mandatory for T cell priming (Ghiringhelli et al., 2009). A two-pronged pathway has been proposed for NLRP3 inflammasome activation in macrophages and DCs. In this model, the first signal is triggered by microbial or endogenous molecules that generate NLRP3 and pro-IL-1p expression through activation of NF-κB; the second signal is triggered by ATP, pore-forming toxins, viral RNA and particulate matters such as silica nanoparticles. […] Resting DCs/macrophages have insufficient NLRP3 in the cells, and therefore, incubating with NLRP3 activator (silica nanoshells) results in no or minimal IL-1β.

[3] = BMDCs, 18 hours, ELISA, means ± SD

## COCCOc1nc(N)c2[nH]c(=O)n(Cc3ccc(C(=O)O)cc3)c2n1 [1V209, 4-[6-Amino-2-(2-methoxyethoxy)-8-oxo-7H-purin-9(8H)-yl]methylbenzoic acid]
TLR7 [1]
  Emax, IL-6, normalized to unconjugated 1V209 (=1X): 1 ×
TLR7 [1]; [3]
  EC50: 1080 ± 101 nM
  Emax, IL-6: 9.9 ± 1.0 ng/mL
CT26 tumors
  tumor remission: did not result in tumor remission
TLR7 [2]
  Emax, IL-12, normalized to unconjugated 1V209 (=1X): 1 ×
TLR7 [2]; [3]
  EC50: 883 ± 193 nM
  Emax, IL-12: 3.2 ± 2.3 ng/mL
NLRP3 inflammasome
  IL-1β level: very low levels or zero
